Active and inactive are the calls of the source.
Assays:
[1] = tested on: INS1; experiment: protection from cytokine-induced mitochondrial depolarization, dose response, cell-based, INS-1E, JC-1 fluorescence ratio, dry powder (AID 488931); assay type: functional; details: Rattus norvegicus
[2] = tested on: BJ; experiment: cells; assay type: functional, cell-based; details: Homo sapiens
[3] = target: Photoreceptor-specific nuclear receptor (Homo sapiens, UniProt Q9Y5X4); assay type: functional, cell-based;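 further: CHO-S cells with Gal4-NCOR and VP16-NR2E3 two-hybrid luciferase reporter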
Photoreceptor-specific nuclear receptor, sequence (Q9Y5X4 whole entry, the tested form may be a part): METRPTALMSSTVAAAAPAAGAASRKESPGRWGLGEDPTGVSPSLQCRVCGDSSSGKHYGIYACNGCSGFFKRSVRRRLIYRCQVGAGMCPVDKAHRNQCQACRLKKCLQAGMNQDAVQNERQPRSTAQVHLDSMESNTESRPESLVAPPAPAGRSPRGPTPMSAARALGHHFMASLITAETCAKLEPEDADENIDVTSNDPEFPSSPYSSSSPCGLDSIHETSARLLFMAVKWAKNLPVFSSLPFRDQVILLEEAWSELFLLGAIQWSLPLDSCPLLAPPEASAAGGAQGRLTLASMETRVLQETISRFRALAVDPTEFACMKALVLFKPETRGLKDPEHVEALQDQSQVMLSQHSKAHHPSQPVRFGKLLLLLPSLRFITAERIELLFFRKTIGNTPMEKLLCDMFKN

[4] = cytotoxicity in HEK-293T NF-kB-Luc cells, dose response, cytotoxicity control for B/T-cell NF-kB inhibitor project, cell-based, uHTS hits (AID 489019); assay type: functional;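 further: IC50 reflects cytotoxicity as loss of cell viability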
[5] = MC4R antagonists, dose response, counter-screen for LGR2 antagonist project, cell-based, plate reader, cherry pick (AID 743444); assay type: functional;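 further: transfected HEK 293 cells stimulated with alpha-MSH peptide; potency of inhibitors of the alpha-MSH evoked signal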
[6] = Luminescence Cell-Based Dose Confirmation HTS to Identify Inhibitors of Platelet Dense Granule Release. [Related pubchem assays: 1663 (Primary HTS), 1678 (Summary of Project)]; assay type: functional
[7] = HEK293 cell cytotoxicity, dose response, cytotoxicity control, plate reader, cherry-picked samples (AID 743446); assay type: functional, cell-based
[8] = HepG2 cell cytotoxicity, dose response, cytotoxicity control for Shn3 inhibitor project, CellTiter-Glo, cherry-picked (AID 624134); assay type: functional, cell-based
[9] = LGR2 antagonists, dose response, cell-based, HEK293, CRE-luciferase reporter, cherry pick, set 2 (AID 743343); assay type: functional;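 further: transfected cells were stimulated with diluted bursicon conditioned medium after compound addition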
[10] = tested on: Jurkat; experiment: antigen receptor-induced NF-kB inhibitors, dose response, Jurkat, luciferase reporter, luminescence, B- and T-cell (AID 489004); assay type: functional, cell-based; details: Homo sapiens;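 further: NF-kB luciferase reporter Jurkat cells stimulated with PMA plus ionomycin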
[11] = A549 cell cytotoxicity, dose response, cytotoxicity control, plate reader, cherry-pick, antagonist series (AID 743412); assay type: functional, cell-based
[12] = off-target signal loss in HeLa-CEM21 co-culture – HeLa F-luc CTL cells, cherry-picked, counter-screen for HIV-1 Env fusion inhibitor project, dose response (AID 652040); assay type: functional, cell-based;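 further: potency for signal decrease marking cytotoxic or nonspecific inhibition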
[13] = tested on: INS1; experiment: beta cell apoptosis inhibitors, cytokine rescue, dose response, luminescence, retest (AID 449756); assay type: functional, cell-based; details: Rattus norvegicus;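 further: cell death triggered by IL-1 beta plus TNF-alpha plus IFN-gamma mixture; protective hits raise ATP signal compared with cytokine alone wells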
[14] = inhibitors of HIV Env-driven cell fusion, dose response, cherry-pick (AID 652057); assay type: functional, cell-based
[15] = tested on: BJ; experiment: cytotoxicity toward Ras-transformed BJeLR fibroblasts, dose response, cell-based, alamar blue fluorescence, cherrypicked samples (AID 2631); assay type: functional; details: Homo sapiens;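 further: confirmatory dose-response assay in RAS-dependent BJ fibroblasts engineered with TERT, LT and ST, with cytotoxicity read by fluorescence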
[16] = Shn3 3'UTR reporter inhibitors, dose response, cell-based, Clone20 osteoblasts, firefly luciferase, cherry-picked (AID 624132); assay type: functional;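 further: firefly luciferase luminescence from reporter carrying the Shn3 3'UTR in osteoblasts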
[17] = cytotoxicity toward DRD oncogenic fibroblasts, dose response, cell-based, non-viral oncogenic, luminescence (AID 1934); assay type: functional; details: Homo sapiens
[18] = CEM21 lymphoblast cell cytotoxicity, dose response, cytotoxicity control for viral fusion inhibitor project, CellTiter-Glo luminescence, cherry-picked (AID 652042); assay type: functional, cell-based;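 further: potency for signal decrease meaning cytotoxicity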
[19] = target: Paired box protein Pax-8 (Homo sapiens, UniProt Q06710); experiment: inhibitors of PAX8-driven TPO luciferase reporter, dose response, RMG-I cells, cherry-pick (AID 687027); assay type: functional, cell-based;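 further: luciferase reporter driven by Pax8 target thyroperoxidase promoter measured by SteadyGlo luminescence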
Paired box protein Pax-8, sequence (Q06710 whole entry, the tested form may be a part): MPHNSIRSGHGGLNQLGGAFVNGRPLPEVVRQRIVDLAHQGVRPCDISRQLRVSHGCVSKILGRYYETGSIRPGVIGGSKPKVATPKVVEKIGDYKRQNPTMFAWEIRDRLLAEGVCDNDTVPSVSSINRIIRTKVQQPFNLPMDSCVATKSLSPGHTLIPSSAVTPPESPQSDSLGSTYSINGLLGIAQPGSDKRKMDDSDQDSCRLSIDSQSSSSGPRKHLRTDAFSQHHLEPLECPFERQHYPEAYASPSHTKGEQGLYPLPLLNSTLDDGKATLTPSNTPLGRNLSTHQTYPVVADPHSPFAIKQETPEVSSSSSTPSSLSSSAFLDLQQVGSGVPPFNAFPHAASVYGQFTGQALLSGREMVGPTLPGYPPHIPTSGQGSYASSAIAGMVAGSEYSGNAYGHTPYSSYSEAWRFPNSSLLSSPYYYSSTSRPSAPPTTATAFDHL

[20] = ZM109 Env clade C HIV-1 fusion inhibitors, dose response, HeLa effector, CEM target cells, luciferase, cherry-pick (AID 652058); assay type: functional, cell-based
[21] = tested on: BJ; experiment: cytotoxicity toward BJ-TERT-LT-ST fibroblasts, dose response, cell-based, RAS-independent, luminescence (AID 1935); assay type: functional; details: Homo sapiens;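 further: BJ fibroblasts immortalized with TERT plus LT and ST oncogenes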
[22] = HepG2 cell cytotoxicity, dose response, cytotoxicity control, plate reader, cherry-pick, antagonist series (AID 743416); assay type: functional, cell-based
[23] = inhibitors of clade B AD8 Env fusion, dose response, cell-based, cherry-pick (AID 652062); assay type: functional;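 further: luciferase signal from cell-cell fusion driven by HIV-1 clade B AD8 Env; potency is for inhibitors of fusion seen as a drop in luminescence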
[24] = tested on: BJ; experiment: cytotoxicity toward BJ-TERT fibroblasts, dose response, cell-based, RAS-independent, luminescence (AID 1933); assay type: functional; details: Homo sapiens
[25] = target: Heat shock protein HSP 90-alpha (Homo sapiens, UniProt P07900); assay type: functional, organism-based
[26] = non-specific cell cytotoxicity, dose response, cytotoxicity control for PAX8 inhibitor project, plate reader, dry powder samples (AID 743021); assay type: functional, cell-based
[27] = target: Luciferin 4-monooxygenase (Photinus pyralis, UniProt P08659); experiment: firefly luciferase enzyme inhibitors, dose response, biochemical, luminescence (AID 1891)
Luciferin 4-monooxygenase, sequence (P08659 whole entry): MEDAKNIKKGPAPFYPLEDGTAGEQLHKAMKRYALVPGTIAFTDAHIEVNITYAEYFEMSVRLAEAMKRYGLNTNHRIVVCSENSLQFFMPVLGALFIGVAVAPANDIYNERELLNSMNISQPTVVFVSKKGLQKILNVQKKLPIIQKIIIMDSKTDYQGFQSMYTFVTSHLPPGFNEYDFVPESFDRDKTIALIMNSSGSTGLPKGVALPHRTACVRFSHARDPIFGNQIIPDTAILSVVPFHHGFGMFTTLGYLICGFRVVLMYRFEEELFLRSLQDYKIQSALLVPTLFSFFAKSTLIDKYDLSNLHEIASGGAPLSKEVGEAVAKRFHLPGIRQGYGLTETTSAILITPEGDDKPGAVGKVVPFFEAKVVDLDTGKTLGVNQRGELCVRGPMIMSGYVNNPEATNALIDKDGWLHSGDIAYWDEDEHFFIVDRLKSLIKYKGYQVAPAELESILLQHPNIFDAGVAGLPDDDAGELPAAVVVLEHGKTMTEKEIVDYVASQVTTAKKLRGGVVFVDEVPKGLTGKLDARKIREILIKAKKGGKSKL

[28] = cytotoxicity in HMLE control line with eGFP shRNA, dose response, counter-screen for HMLE_sh_ECad selective toxicity project, cell-based, HMLE_sh_eGFP, luminescence (AID 463074); assay type: functional, Homo sapiens;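 further: HMLE human mammary epithelial cells expressing control shRNA against eGFP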
[29] = Luminescence Cell-Based Dose Retest to Confirm Inhibitors of Cancer Stem Cells. [Related pubchem assays (depositor defined):AID2717, AID2721]; assay type: functional; details: Homo sapiens
[30] = target: T1, Short transient receptor potential channel 4 (Mus musculus, UniProt Q9QUQ5); experiment: TRPC4 inhibitor concentration-response, dose response, cell-based, HEK293 TRPC4/mu-opioid, DAMGO stimulus, Fluo-4 (AID 492994); assay type: functional
T1 sequence (Q9QUQ5 whole entry): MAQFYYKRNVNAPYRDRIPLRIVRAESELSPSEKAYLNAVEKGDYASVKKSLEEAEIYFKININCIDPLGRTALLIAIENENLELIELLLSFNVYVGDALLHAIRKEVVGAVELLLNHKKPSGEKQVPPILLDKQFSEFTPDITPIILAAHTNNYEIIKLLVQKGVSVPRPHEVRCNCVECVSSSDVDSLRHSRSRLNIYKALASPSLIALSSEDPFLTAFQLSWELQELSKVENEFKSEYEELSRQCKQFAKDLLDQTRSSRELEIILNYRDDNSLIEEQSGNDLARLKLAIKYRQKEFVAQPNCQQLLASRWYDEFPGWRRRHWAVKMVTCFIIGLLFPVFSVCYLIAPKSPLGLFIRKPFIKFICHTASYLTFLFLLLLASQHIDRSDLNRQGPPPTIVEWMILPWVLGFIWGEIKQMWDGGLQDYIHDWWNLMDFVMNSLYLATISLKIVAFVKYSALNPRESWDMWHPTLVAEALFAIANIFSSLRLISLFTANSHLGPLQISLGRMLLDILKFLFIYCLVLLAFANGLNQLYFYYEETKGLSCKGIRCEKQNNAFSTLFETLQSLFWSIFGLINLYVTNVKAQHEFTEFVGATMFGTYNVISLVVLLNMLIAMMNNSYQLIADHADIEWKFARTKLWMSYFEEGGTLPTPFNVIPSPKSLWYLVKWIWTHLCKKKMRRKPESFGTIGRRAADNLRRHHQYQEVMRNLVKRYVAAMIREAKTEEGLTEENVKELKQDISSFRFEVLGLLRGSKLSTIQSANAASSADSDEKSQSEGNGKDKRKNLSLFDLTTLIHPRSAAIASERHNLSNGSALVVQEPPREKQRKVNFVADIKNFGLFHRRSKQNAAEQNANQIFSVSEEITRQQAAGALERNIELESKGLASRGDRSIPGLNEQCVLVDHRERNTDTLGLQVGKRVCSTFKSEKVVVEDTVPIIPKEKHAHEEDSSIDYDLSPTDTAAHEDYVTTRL

[31] = target: T1, Short transient receptor potential channel 4; experiment: SAR Analysis for the identification of selective inhibits of the transient receptor potential cation channel C4 (TRPC4): Automated Electrophysiology_2. [Related pubchem assays (depositor defined):AID2256]; assay type: functional
[32] = tested on: INS1; experiment: protection of INS-1E cells from cytokine death, dose response, ATP luminescence, dry powder (AID 488844); assay type: functional, cell-based; details: Rattus norvegicus

COc1ccc(S(=O)(=O)N(C)C[C@@H]2Oc3c(NC(=O)Nc4ccc5c(c4)OCO5)cccc3C(=O)N([C@@H](C)CO)C[C@H]2C)cc1
active: AC50 [1] 98.3 µM

COc1ccccc1C(=O)Nc1nc2ccccc2[nH]1
active: IC50 [3] 3.25 µM | AC50 [5] 0.253 µM | EC50 [6] 0.196 µM | AC50 [7] 2.33 µM | AC50 [8] 6.57 µM | AC50 [9] 0.217 µM | IC50 [10] 0.57 µM | AC50 [11] 1.29 µM | AC50 [12] 2.57 µM | AC50 [13] 1.69 µM | AC50 [14] 0.879 µM | AC50 [16] 0.868 µM | EC50 [17] 0.734 µM | AC50 [18] 1.71 µM | AC50 [19] 2.04 µM | AC50 [20] 6.08 µM | AC50 [22] 6.26 µM | AC50 [23] 1.41 µM | AC50 [25] 0.555 µM | AC50 [26] 1.79 µM | EC50 [27] 0.159 µM
inconclusive: EC50 [2] 0.607 µM | EC50 [21] 1.83 µM | EC50 [24] 0.802 µM
inactive: IC50 [4] > 80 µM | EC50 [15] > 133 µM

O=C(c1cc(-c2ccc(O)cc2)on1)N1CCN(c2ccccc2)CC1
active: AC50 [28] 23.1 µM | AC50 [29] 2.89 µM

CCN(CC)c1cc(C)c2ccccc2n1
active: IC50 [30] 5.24 µM | IC50 [31] 7.54 µM

COc1ccc(S(=O)(=O)N(C)C[C@@H]2Oc3c(NC(=O)Nc4ccc(F)cc4)cccc3C(=O)N([C@H](C)CO)C[C@H]2C)cc1
active: AC50 [32] 41.7 µM
